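A five-concentration, 48-hour dose response in 96-well plates underlies each endpoint, interpolated linearly between surrounding concentrations. The concentration for full growth arrest is given as TGI.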
Legend:
Assay in all cases: NCI anticancer screen, dose series, 48 h
[1] = system: UO-31 renal
[2] = system: SK-OV-3 ovarian
[3] = system: OVCAR-3 ovarian
[4] = system: NCI-H226 lung
[5] = system: SR leukemia
[6] = system: KM20L2 colon
[7] = system: M14 melanoma
[8] = system: CCRF-CEM leukemia
[9] = system: K-562 leukemia
[10] = system: CAKI-1 renal
[11] = system: XF 498 CNS
[12] = system: EKVX NSCLC
[13] = system: IGROV1 ovarian
[14] = system: SK-MEL-2 melanoma
[15] = system: A549 NSCLC
[16] = system: RPMI-8226 leukemia
[17] = system: OVCAR-8 ovarian
[18] = system: SF-295 CNS
[19] = system: HOP-18 NSCLC
[20] = system: SNB-19 CNS
[21] = system: MALME-3M melanoma
[22] = system: NCI-H460 lung
[23] = system: HL-60(TB) leukemia
[24] = system: SF-268 CNS
[25] = system: NCI-H23 lung
[26] = system: RXF 393 renal
[27] = system: HOP-62 NSCLC
[28] = system: TK-10 renal
[29] = system: HOP-92 NSCLC
[30] = system: UACC-62 melanoma
[31] = system: ACHN renal
[32] = system: SNB-75 CNS
[33] = system: DMS 114 small cell lung
[34] = system: NCI-H522 lung
[35] = system: SN12C renal
[36] = system: SF-539 CNS
[37] = system: DMS 273 small cell lung
[38] = system: LOX IMVI melanoma
[39] = system: OVCAR-4 ovarian
[40] = system: OVCAR-5 ovarian
[41] = system: U251 CNS
[42] = system: SNB-78 CNS
[43] = system: HT29 colon
[44] = system: HCC-2998 colon
[45] = system: SK-MEL-5 melanoma
[46] = system: M19-MEL melanoma
[47] = system: RXF-631 renal
[48] = system: UACC-257 melanoma
[49] = system: HCT-116 colon
[50] = system: LXFL 529 NSCLC
[51] = system: DLD-1 colon
[52] = system: HCT-15 colon
[53] = system: SW-620 colon
[54] = system: MOLT-4 leukemia
[55] = system: COLO 205 colon
[56] = system: KM12 colon
[57] = system: 786-0 renal
[58] = system: A498 renal
[59] = system: SK-MEL-28 melanoma

Work on `COc1cc2c(cc1OC)C1Cc3sccc3CN1CC2` (stereo not drawn) yielded a TGI [1] greater than 100 µM, a TGI [2] greater than 100 µM and a TGI [3] greater than 100 µM. The TGI [4] was greater than 100 µM, the TGI [5] was greater than 100 µM and the TGI [6] was greater than 100 µM. The TGI [7] was greater than 100 µM, the TGI [8] was greater than 100 µM and the TGI [9] was greater than 100 µM. It also gave a TGI [10] greater than 100 µM, a TGI [11] greater than 100 µM and a TGI [12] greater than 100 µM. It also gave a TGI [13] greater than 100 µM, a TGI [14] greater than 100 µM and a TGI [15] greater than 100 µM. For the same molecule, the TGI [16] was greater than 100 µM, the TGI [17] was greater than 100 µM and the TGI [18] was greater than 100 µM. The TGI [19] was greater than 100 µM, the TGI [20] was greater than 100 µM and the TGI [21] was greater than 100 µM. For the same molecule, the TGI [22] was greater than 100 µM, the TGI [23] was greater than 100 µM and the TGI [24] was greater than 100 µM. The TGI [25] was greater than 100 µM, the TGI [26] was greater than 100 µM and the TGI [27] was greater than 100 µM. It also gave a TGI [28] greater than 100 µM, a TGI [29] greater than 100 µM and a TGI [30] greater than 100 µM. It also gave a TGI [31] greater than 100 µM, a TGI [32] greater than 100 µM and a TGI [33] greater than 100 µM. It also gave a TGI [34] greater than 100 µM, a TGI [35] greater than 100 µM and a TGI [36] greater than 100 µM. The TGI [37] was greater than 100 µM, the TGI [38] was greater than 100 µM and the TGI [39] was greater than 100 µM. For the same molecule, the TGI [40] was greater than 100 µM, the TGI [41] was greater than 100 µM and the TGI [42] was greater than 100 µM. The TGI [43] was greater than 100 µM, the TGI [44] was greater than 100 µM and the TGI [45] was greater than 100 µM. For the same molecule, the TGI [46] was greater than 100 µM, the TGI [47] was greater than 100 µM and the TGI [48] was greater than 100 µM. The TGI [49] was greater than 100 µM, the TGI [50] was greater than 100 µM and the TGI [51] was greater than 100 µM. For the same molecule, the TGI [52] was greater than 100 µM, the TGI [53] was greater than 100 µM and the TGI [54] was greater than 100 µM.

Molecule `COC(=O)c1cc(-c2ccc(OC)c(OC)c2)oc1-c1ccc(OC)c(OC)c1` has a TGI [1] greater than 100 µM, a TGI [2] greater than 100 µM and a TGI [3] greater than 100 µM. The TGI [4] was greater than 100 µM, the TGI [5] was greater than 100 µM and the TGI [6] was greater than 100 µM. It also gave a TGI [7] greater than 100 µM, a TGI [8] greater than 100 µM and a TGI [9] greater than 100 µM. For the same molecule, the TGI [55] was 39.4 µM, the TGI [10] was greater than 100 µM and the TGI [11] was greater than 100 µM. For the same molecule, the TGI [56] was greater than 100 µM, the TGI [12] was greater than 100 µM and the TGI [13] was greater than 100 µM. It also gave a TGI [14] greater than 100 µM, a TGI [15] greater than 100 µM and a TGI [16] greater than 100 µM. It also gave a TGI [17] greater than 100 µM, a TGI [18] greater than 100 µM and a TGI [19] greater than 100 µM. The TGI [21] was greater than 100 µM, the TGI [22] was greater than 100 µM and the TGI [23] was greater than 100 µM. For the same molecule, the TGI [24] was greater than 100 µM, the TGI [25] was greater than 100 µM and the TGI [26] was 72.7 µM. It also gave a TGI [27] greater than 100 µM, a TGI [28] greater than 100 µM and a TGI [29] of 71.4 µM. It also gave a TGI [30] greater than 100 µM, a TGI [31] greater than 100 µM and a TGI [32] greater than 100 µM. It also gave a TGI [57] greater than 100 µM, a TGI [33] of 95.5 µM and a TGI [35] of 93.6 µM. The TGI [36] was 96.2 µM, the TGI [37] was greater than 100 µM and the TGI [38] was greater than 100 µM. It also gave a TGI [58] of 59.5 µM, a TGI [39] greater than 100 µM and a TGI [59] greater than 100 µM. The TGI [40] was greater than 100 µM, the TGI [41] was greater than 100 µM and the TGI [42] was greater than 100 µM. The TGI [43] was greater than 100 µM, the TGI [44] was greater than 100 µM and the TGI [46] was greater than 100 µM. For the same molecule, the TGI [47] was greater than 100 µM, the TGI [48] was greater than 100 µM and the TGI [49] was greater than 100 µM. The TGI [50] was greater than 100 µM, the TGI [51] was greater than 100 µM and the TGI [52] was greater than 100 µM. The TGI [53] was greater than 100 µM and the TGI [54] was greater than 100 µM.

`Cc1ccc(NC(=O)OCC(COc2ccc(Cl)cc2)OC(=O)Nc2ccc(C)cc2)cc1` (stereo not drawn) gave a TGI [1] greater than 100 µM, a TGI [2] greater than 100 µM and a TGI [3] of 61.8 µM. The TGI [4] was 67.9 µM, the TGI [5] was greater than 100 µM and the TGI [6] was greater than 100 µM. The TGI [7] was 63.8 µM, the TGI [8] was greater than 100 µM and the TGI [9] was 60.4 µM. It also gave a TGI [55] greater than 100 µM, a TGI [10] of 57 µM and a TGI [11] of 86.7 µM. For the same molecule, the TGI [56] was greater than 100 µM, the TGI [12] was greater than 100 µM and the TGI [13] was greater than 100 µM. It also gave a TGI [14] of 58.4 µM, a TGI [15] greater than 100 µM and a TGI [16] greater than 100 µM. For the same molecule, the TGI [17] was greater than 100 µM, the TGI [18] was 80.6 µM and the TGI [19] was greater than 100 µM. The TGI [20] was 57.3 µM, the TGI [21] was 54.2 µM and the TGI [22] was greater than 100 µM. The TGI [23] was 27.9 µM, the TGI [24] was greater than 100 µM and the TGI [25] was greater than 100 µM. For the same molecule, the TGI [26] was 43.1 µM, the TGI [27] was greater than 100 µM and the TGI [28] was 96.9 µM. The TGI [29] was 31 µM, the TGI [30] was greater than 100 µM and the TGI [31] was greater than 100 µM. It also gave a TGI [32] of 36.9 µM, a TGI [33] of 98.8 µM and a TGI [34] greater than 100 µM. The TGI [35] was greater than 100 µM, the TGI [36] was 52.3 µM and the TGI [37] was 66.4 µM. For the same molecule, the TGI [38] was 96.9 µM, the TGI [58] was 60.4 µM and the TGI [39] was 73.6 µM. It also gave a TGI [59] greater than 100 µM, a TGI [40] greater than 100 µM and a TGI [41] greater than 100 µM. The TGI [42] was 82.5 µM, the TGI [43] was 71.7 µM and the TGI [44] was greater than 100 µM. For the same molecule, the TGI [45] was greater than 100 µM, the TGI [46] was greater than 100 µM and the TGI [47] was 24.9 µM. It also gave a TGI [48] greater than 100 µM, a TGI [49] greater than 100 µM and a TGI [50] greater than 100 µM. It also gave a TGI [51] greater than 100 µM, a TGI [52] greater than 100 µM and a TGI [53] greater than 100 µM. The TGI [54] was greater than 100 µM.
